What was measured:
[1] = system: murine model of acquired epilepsy triggered by de novo status epilepticus; experiment: Effect of reparixin on onset and development of epilepsy (intra-amygdala kainic acid status epilepticus, EEG recording); format: in vivo, C57BL6/N male mice
Description: A murine model of acquired epilepsy triggered by de novo status epilepticus was used in the experiments (lori et al, Neurobiol Dis 2017, 99 12-23).
In details, eight week-old C57BL6/N male mice (˜25 g; Charles River, calco, Italy) were used. Mice were maintained in SPF facilities and housed at a constant room temperature (23° c) and relative humidity (60±5%) with free access to food and water and a fixed 12 h light/dark cycle. All experimental procedures were conducted in conformity with institutional guidelines that are in compliance with national (D.L. n.26, G.U. Mar. 4, 2014) and international laws and policies (EEC council directive 86/609, OJ L 358, 1, Dec. 12, 1987, guide for the care and use of laboratory animals, U.S. national research council, 1996), and were reviewed and approved by the intramural ethical committee.
Mice were surgically implanted under general gas anaesthesia (1-3% isoflurane in O2) and stereotaxic guidance. A 23-gauge guide cannula was unilaterally positioned on top of the dura mater for the intra-amygdala injection of kainic acid (KA) (from bregma, mm: nose bar 0; anteroposterior, −0.9; lateral, −3.1) in accordance with lori et al. (2017).
For seizure recording, a nichrome-insulated bipolar depth electrode (60 μm OD) was implanted in the dorsal hippocampus (from bregma, mm: nose bar 0; anteroposterior—1.8, lateral 1.4 and 1.8 below dura mater) contralateral to the injected amygdala and a cortical electrode was placed onto the somatosensory cortex in the ipsilateral hemisphere. Finally, two screw electrodes were positioned over the nasal sinus and the cerebellum, and used as ground and reference electrodes, respectively. Electrodes were connected to a multipin socket and secured to the skull by acrylic dental cement.
Minipumps (Alzet pump 1007D, 100 μ/minipump or Alzet pump 2002, 200 μ/minipump; Charles River, Calco, Italy) filled with reparixin dissolved in a vehicle consisting in sterile saline (NaCl 0.9%) solution (vehicle) (reparixin group) or vehicle (sham control group and vehicle group) were implanted subcutaneously in the back of the mice. Briefly, a small incision was made in the skin between the scapulae and a pocket was formed by spreading apart the connective tissues. After minipump positioning, the skin was carefully sutured to avoid any discomfort to the animal.
One week after surgery, mice were connected to the EEG set up (TWIN EEG recording system connected with a comet AS-40 32/8 amplifier:sampling rate 400 hz, high-pass filter 0.3 hz, low-pass filter 70 hz, sensitivity 2000 my/cm; Grass-telefactor, West Warwick, USA) in order to record an EEG baseline before the induction of status epilepticus (SE). […]
Reparixin, at the dose of 7.5 mg/h/kg (reparixin group), or vehicle (sham and vehicle group) were administered by continuous infusion using osmotic minipumps as described in example 1b).
After 24 hours from infusion, status epilepticus was induced in the vehicle group and reparixin group by amygdal injection of kaininc acid.
In details, kainic acid (KA, 0.3 μg in 0.2 μl; Sigma-Aldrich, S. Louis, USA) was dissolved in […] phosphate-buffered saline (PBS, pH 7.4) and injected into the right basolateral amygdala in freely moving mice using a needle protruding 4.1 mm below the implanted cannula in order to evoke SE. SE was defined by the appearance of continuous spike activity with a frequency>1 Hz intermixed with high amplitude and frequency discharges lasting for at least 5 s, with a frequency of >8 Hz. […]

[2] = system: Fluoro-Jade-positive degenerating neurons; experiment: Fluoro-Jade staining of degenerating neurons in hippocampus after SE; format: in vivo, C57BL6/N male mice; details: 72 h post-SE
Description: (§1) A cohort of animals was prepared in accordance to Example 1 to study the effects of reparixin on the acetylated alpha-tubulin, a pharmacodynamic marker of drug's neuroprotective effect, and on degenerating neurons, as identified by Fluoro-Jade staining.
(§2) vehicle group (n=6) and reparixin group (n=7). Sham mice (implanted with electrodes but not exposed to SE) were used as controls (n=6).
(§3) The animals of the different groups were treated as described in Example 2.
(§4) All mice were transcardially perfused 72 h post-SE with ice-cold phosphate buffered saline (PBS, pH 7.4), followed by 4% paraformaldehyde (PFA) in PBS. Brains were post-fixed for 90 min in 4% PFA in PBS at 4° C., then transferred to 20% sucrose in PBS overnight at 4° C. and then frozen in n-pentane for 3 min at −43° C. and stored at −80° C. until assay. Serial coronal sections (40 μm) were cut on a cryostat throughout the extension of the hippocampus (from bregma −1.22 to −2.54 mm).
(§5) Sections were processed to measure both degenerating neurons with Fluoro-Jade and acetylated alpha-tubulin (marker of microtubule stability) as described below. Three slices for each animal's brain in each experimental group/marker were matched for anteroposterior level and processed.
Labeling was carried out as previously described (Ravizza et al., 2008). Briefly, sections were dried in ethanol (100%, 75% and 50%) and rehydrated in distilled water. […]

acetylated alpha-tubulin = experiment: Acetylated alpha-tubulin immunostaining in hippocampus after SE; format: in vivo, C57BL6/N male mice; details: as assessed 48 h and 72 h after SE; 7.5 mg/h/kg minipump; reparixin n=7, vehicle n=4
Description: as §1, §2, §3
as §4, with “All mice were transcardially perfused 72 h post-SE with ice-cold phosphate buffered saline (PBS, pH 7.4), followed by 4% paraformaldehyde (PFA) in PBS.” left out
as §5
Slices were blocked for 30 min at 4° C. in blocking buffer (0.1% Triton-X100, 3% BSA in PBS; Invitrogen) then incubated with primary antibody against acetylated alpha-tubuline 1:2000 (#24610 Abcam) overnight at 4 C. […]

[3] = system: chronic epileptic mice with established spontaneous seizures; experiment: Effect of reparixin on established seizures in chronic epileptic mice; format: in vivo
Description: The objective of this experiment was to assess whether reparixin affects seizure frequency or duration in chronic epileptic mice with established spontaneous seizures. Status epilepticus was induced in 18 mice prepared as described in Example 1a) by amygdala injection of kainic acid and EEG was recorded for 14 days to determine disease onset as described in Example 2. Then, mice were disconnected from EEG and returned to their home cages until day 45 at which time they were again EEG recorded for 14 days to determine their individual baseline of spontaneous seizures. At the end of this period, mice were temporarly disconnected for minipumps implantation. Minipumps (ALZET model 2002; 0.5 μl/h) were filled with Reparixin (7.5/mg/h/kg, n=9) or its vehicle (n=9) according to the manifacturer's instructions and implanted subcutaneously in the back of the mice under general gas anaesthesia (1-3% isoflurane in O2). Upon awakening from anesthesia, mice were returned to their home cages for monitoring the EEG for additional 14 days during treatment. At the end of treatment period (as determined by minipump exhaustion) venous blood was collected from the cheek and plasma was isolated for drug level measurement. Mice were subsequently monitored during a drug wash-out period of 14 days. A group of sham mice (not exposed to SE but handled as experimental mice) were implanted with minipumps filled with vehicle (n=6).

CC(C)Cc1ccc([C@@H](C)C(=O)NS(C)(=O)=O)cc1 [reparixin, R-(-)-2-(4-isobutylphenyl)propionyl methansulfonamide]
onset time of SE ([1]; 7.5 mg/h/kg continuous s.c. minipump infusion started 24 h before kainic acid, vs vehicle group, n=24/group): did not modify
onset of spontaneous seizures (epilepsy onset, Kaplan-Meyer curve) ([1]; 7.5 mg/h/kg minipump for 7 days post-SE, p<0.05 Log-rank test vs vehicle): significant delay
incidence of acute symptomatic seizures during 48 h post-SE ([1]; 7.5 mg/h/kg minipump, all animals exposed to SE, p<0.05 by Fisher's test vs vehicle (62% of mice)): 20 % of mice
number of spontaneous recurrent seizures (SRS) during drug treatment ([1]; 48 h-7 d post-SE, vs vehicle group, p<0.05 Mann-Whitney test): significant reduction
mice that died during epilepsy development ([1]; reparixin group n=9, vehicle group 3 out of 12 died because of severe seizures): 1 out of 9
mice without Fluoro-Jade positive neurons in CA4 ([2]; vehicle 1 out of 5 without neurodegeneration, p=0.29 by Fisher test): 4 out of 7
mice without Fluoro-Jade positive neurons in CA1 pyramidal cell layer ([2]; vehicle 5 out of 5 showed neurodegeneration, p<0.05 by Fisher test): 5 out of 7
immunohistochemical signal of acetylated alpha-tubulin in the mouse hippocampus (acetylated alpha-tubulin): significantly reduced
average SRS duration ([3]; 7.5 mg/h/kg s.c. minipump for 14 days, n=9): not modified
reduction of the number of spontaneous seizures compared to pre-injection baseline ([3]; 7.5 mg/h/kg s.c. minipump for 14 days, n=9, p<0.05 one-way ANOVA, Tukey's test): about 50%
responders (at least 30% seizure reduction during treatment vs pre-treatment baseline) ([3]; 7.5 mg/h/kg s.c. minipump for 14 days, waterfall plot): 7 out of 9
number of seizures upon drug discontinuation ([3]; drug wash-out period of 14 days): returned to pre-injection baseline level
